From patent publication US8057829B2, “Methods for repelling insects using sesquiterpene hydrocarbons and their derivatives” (Sterling International Inc., priority 2008, dated 2011) come the findings set out here.

The structures appear in SMILES notation.

Experiment [1] has as its system housefly (Musca domestica) antenna. The experiment in a line: GC-EAD antennal response, housefly. As to conditions: female housefly antenna; synthetic mixture, about 100 ng of each compound; FIG. 3. An excerpt:
The sesquiterpene hydrocarbons and their derivatives disclosed herein have been identified as suitable insect repellents by testing via a gas chromatographic-electroantennographic detection (GC-EAD) method as described in Example 1 below. This method can be used to efficiently screen for potentially behaviorally active compounds, including insect repellents, attractants, deterrents, or attraction-inhibitors from complex natural sources or synthetic mixtures.
The GC-EAD responses of the female housefly antenna were tested on a synthetic mixture of 1-octen-3-ol, a known attractant used as a positive control, and representative sesquiterpene hydrocarbons and derivatives, (+)-longipinene, (−)-isolongifolene, (+)-longifolene, β-caryophyllene, α-humulene, and isolongifolenone, with about 100 ng of each compound in the mixture.
The GC-EAD responses of the male housefly antenna were tested on a synthetic mixture of 1-octen-3-ol, and two representative sesquiterpenes, β-caryophyllene and isocaryophyllene, with about 100 ng of each compound in the mixture.
(§1) The following procedures were employed to test the EAD response of an insect antenna to a repellent compound. The GC-EAD technique provides an efficient tool for screening behaviorally active repellents. Several synthetic mixtures of potential insect repellent candidates, mostly sesquiterpene hydrocarbons and derivatives, were analyzed in splitless mode using a Varian CP-3800 GC equipped with a polar column (Innowax; 1.0 μm film thickness, 30 m×0.53 mm ID; J & W Scientific), and a 1:1 effluent splitter that allowed simultaneous flame ionization detection (FID) and EAD of the separated volatile compounds. Helium was used as the carrier gas, and the injector temperature was 220° C. The column temperature was 50° C. for 2 min, rising to 240° C. at 10° C./min, then held for 10 min. The outlet for the EAD was held in a humidified air stream flowing at 0.5 liter/min. over an antennal preparation. A glass capillary indifferent electrode filled with Beadle-Ephrussi Ringer, and grounded via a silver wire, was inserted into the severed insect's head with the antennae. A similar recording electrode connected to a high-impedance DC amplifier with automatic baseline drift compensation was placed in contact with the distal end of one antenna (Zhang et al., Chemoecology, 10:69-80 (2000)). The antennal signals were stored and analyzed on a PC equipped with a serial IDAC interface box and the program EAD ver. 2.5 (Syntech, Hilversum, The Netherlands). The compound 1-octen-3-ol (known attractant for many flies and mosquitoes) was included in most of the synthetic mixtures, as a positive control. The results of the experiments are shown in FIGS. 1-10 and described above.

Experiment [2] has as its system female mosquito Culex pipiens antenna. The experiment in a line: GC-EAD antennal response, Culex pipiens. Particulars: female Culex pipiens antennae; about 100 ng of each compound; responses weak, but repeatable; FIGS. 7 and 8. On the procedure:
The GC-EAD responses of the female mosquito Culex pipiens antenna were tested on a synthetic mixture of 1-octen-3-ol, and two sesquiterpene hydrocarbons, β-caryophyllene and isocaryophyllene, with about 100 ng of each compound in the mixture.
The GC-EAD responses of the female mosquito Culex pipiens antenna were tested on a synthetic mixture of 1-octen-3-ol, and representative sesquiterpene hydrocarbons and derivatives including (+)-longipinene, (−)-isolongifolene, (+)-longifolene, β-caryophyllene, and isolongifolenone, with about 100 ng of each compound in the mixture.
Antennal responses were weak, but repeatable, thus are considered to be true responses.
as §1

Experiment [3] concerns female antennae of sand fly Phlebotomus papatasi and mosquitoes Aedes aegypti, Anopheles gambiae, Anopheles stephensi. The experiment in a line: GC-EAD responses of sand fly and three mosquitoes to synthetic mixtures. As to conditions: about 100 ng of each compound, on one or more of the sand fly or the mosquitoes, FIGS. 9 and 10. On the procedure:
The GC-EAD responses of female antennae of the sand fly, Phlebotomus papatasi, and three species of mosquitoes, Aedes aegypti, Anopheles gambiae, and anopheles stephensi were tested on a synthetic mixture of 1-octen-3-ol, six sesquiterpene hydrocarbons including (+)-longipinene, (−)-isolongifolene, (+)-longifolene, β-caryophyllene, isolongifolenone, and α-humulene, and several known insect repellents including ZE-nepetalactone, EZ-nepetalactone, with about 100 ng of each compound in the mixture.
The GC-EAD responses of female antennae of the sand fly, Phlebotomus papatasi, and three species mosquitoes, Aedes aegypti, Anopheles gambiae, and anopheles stephensi were tested on a synthetic mixture of 1-octen-3-ol, linalool, β-caryophyllene oxide, isocaryophyllene, β-caryophyllene, and α-humulene, and DEET, with about 100 ng of each compound in the mixture.
as §1

The subject of experiment [4] is antennae of housefly, sand fly, and mosquitoes (Aedes aegypti, Aedes increpitus, Anopheles gambiae). The experiment in a line: GC-EAD antennal responses to SPME samples of patchouli essential oil. Particulars: component of patchouli essential oil SPME sample; response by one or more of the insects; FIG. 2. On the procedure: as §1, with “control.” for “control. The results of the experiments are shown in FIGS. 1-10 and described above.”

Experiment [5] concerns Anopheles stephensi. The experiment in a line: K&D module behavioral bioassay (topical repellency, biting). The experiment is classed as in vivo. On the procedure: (§2) The bioassays were conducted with a six-cell in vitro K&D module system, as disclosed in Klun and Debboun, J. Med. Entomol. 37:177-181 (2000), loaded with an “artificial blood” (CPDA+ATP) solution.
(§3) Clove essential oil, patchouli oil, and EAD-active potential repellents, β-caryophyllene, isocaryophyllene, (+)-longifolene, and their 1:1:1 mixture, plus α-guaiene, caryophyllene oxide, and a β-caryophyllene ketone, were tested using the six-cell in vitro K&D module system (Klun and Debboun, J. Med. Entomol. 37:177-181 (2000)) loaded with an “artificial blood” (CPDA+ATP) solution on both Ae. aegypti and An. stephensi in a dose-response fashion. The K&D in vitro assay system has three components: (1) a Plexiglas™ 29.7 cm.×7.1 cm K&D module composed of six adjacent cells, each designed to hold mosquitoes and each having a rectangular 3×4 cm floor hole that is opened and closed by a sliding door; (2) a Plexiglas™ six-well 29.7 cm×7.1 cm water water-bath warmed (38° C.) reservoir with six 3×4 cm wells designed to match the sliding-door openings of the K&D module base and to contain 6 mL warmed “artificial blood” wells covered with a collagen membrane; and (3) a 29.7 cm×7.1 cm'0.4 cm Teflon® separator having six rectangular openings like the K&D module. The K&D module was connected to a constant temperature water circulator at 38° C. The cells were covered with an Edicol collagen membrane strip. Nylon organdy strips with ink cell patterns were numbered and randomly treated with […] of the tested chemical in ethanol (ethanol alone as blank control), plus DEET (ca. 10 μg/cm^2) as a positive control. This treated nylon organdy strip was placed on top of the collagen membrane. The upper section of the K & D module with the six cells each containing 5 mosquitoes (5-10 d old, starved for 24 hr before testing) was placed on top of the nylon strip. The doors to the cells were slid open so the mosquitoes could be free to feed on the “artificial blood” via the collagen membrane if they were hungry. The experiments were allowed to run for 3 minutes, and the number of mosquitoes feeding (biting) in each cell was recorded. After each experiment, the nylon and collagen strips were removed. The CPDA+ATP solution was removed and allowed to dry prior to starting the next experiment. The experiments on each chemical and each mosquito species were run three times before the bottom section with circulated water was cleaned prior to use again.

Experiment [6] concerns Aedes aegypti. Described as above. The experiment is classed as in vivo. On the procedure: as §2, §3
Experiment [7] has as its system Anopheles stephensi. The experiment in a line: Y-tube olfactometer behavioral bioassay (spatial repellency). The experiment is classed as in vivo. On the procedure: (§4) Aegypti and An. stephensi, and one species of sand fly, P. papatasi. Both the mosquitoes and the sand flies used in the study were from colonies maintained at the Walter Reed Army Institute of Research, Department of Entomology, Silver Spring, Md. This Y-tube bioassay system, equipped with CO2-enriched air (ca. 1 l/min) as an attractant, was made from three clear acrylic tubes (4″ diameter; 12″ length) with symmetrical 120° angles among the three tube arms; and a screen butterfly valve on the top part of the bottom releasing tube. These spatial repellency tests were carried out during 8:00 am-12:00 pm (photophase) time period for Ae. aegypti and 1:00-5:00 pm (shifted scotophase) time period for the species of night-flying mosquitoes and sand fly in a temperature and humidity controlled testing room (23-25° C. and 20-40% RH). Female mosquitoes or sand flies were stored at ˜25-26° C., 50-89% RH, 12:12 hr. (L/D), fed with 10% sucrose solution before testing. The candidate chemical (individual or mixture) dispenser and a blank control were placed in the upper left or right arm of the Y-tube before releasing 25-40, 6 to 10 day-old female mosquitoes (or 3 to 10 day-old sand flies) into the bottom tube via a small hole. After a 30-60 sec acclimation period, the butterfly screen valve (door) on the top of the bottom tube was opened. After 10 min., the valve was closed and the numbers of mosquitoes or sand flies in each arm (including the bottom tube) were counted. In order to minimize the position effect, the same experiment was repeated once with the treatment and blank control arms shifted using a new (clean) Y-tube olfactometer and a new batch of mosquitoes/sand flies. Data from these two replicates were pooled for χ2 goodness of fit test (df=1) between the treatment and blank control.

The subject of experiment [8] is Aedes aegypti. The experiment is described as above. The experiment is classed as in vivo. On the procedure: as §4
Where [9] appears, read: 10 μg/cm^2, DEET values are the positive control run with the chemical.
Setting [10] is: Anopheles stephensi females, release rate per chemical (β-Caryophyllene 10 mg/day), 10 min.
[11] abbreviates: Aedes aegypti females, release rate per chemical (1-60 mg/day), 10 min.

On to `CC1=CC[C@@H]2[C@H]3[C@H]1[C@@]2(C)CCCC3(C)C` [(+)-longipinene, (+)-Longipinene], for which the GC-EAD antennal activity result is reported as “active” in experiment [1], “active” in experiment [2] and “antennally active” in experiment [3].

`CC1(C)C2=CC(=O)CC(C)(C)[C@]23CC[C@H]1C3` [isolongifolenone, reference compound]: the values for the GC-EAD antennal activity result in experiment [1] and in experiment [3] were “inactive” and “does not appear to have elicited antennal activity”, respectively.

Consider `C=C1C2CCC3(C)C(C2)C(C)CCC13C` (stereo not shown) [seychellene], for which the GC-EAD antennal activity entry in experiment [4] is “elicited EAD-activity”.

As to `C=C(C)[C@@H]1CCC(C)=C2CC[C@H](C)[C@@H]2C1` [α-Bulnesene, α-bulnesene], the GC-EAD antennal activity result in experiment [4] is on record as “elicited EAD-activity”. Also, the “% of biting (±SE) (N = 3)” value in the experiment on Anopheles stephensi [5] (setting [9]) was found to be 87 ± 7b %; with Anopheles stephensi [5] (100 μg/cm^2) it was 0 ± 0a %; in the experiment with Anopheles stephensi [5] (500 μg/cm^2), 0 ± 0a %; in the experiment with Anopheles stephensi [5] (1000 μg/cm^2) it was 0 ± 0a %; in the experiment on Aedes aegypti [6] (setting [9]), 73 ± 7b %; with Aedes aegypti [6] (100 μg/cm^2), 0 ± 0a %. Further, the “% of biting (±SE) (N = 3)” value with Aedes aegypti [6] (500 μg/cm^2) and in the experiment on Aedes aegypti [6] (1000 μg/cm^2) was 0 ± 0a % throughout. Besides, the “Number of mosquitoes in each arm: Repellent” value came to 13 in the experiment on Anopheles stephensi [7] (Anopheles stephensi females, release rate per chemical (1-60 mg/day; β-Caryophyllene 10 mg/day), 10 min) and 11 with Aedes aegypti [8] (Aedes aegypti females, release rate per chemical (1-60 mg/day), 10 min, two replicates pooled). Further, the “Number of mosquitoes in each arm: Blank” value in the experiment with Anopheles stephensi [7] (setting [10]) stood at 33; with Aedes aegypti [8] (setting [11]), 35. In addition, the “Number of mosquitoes in each arm: Bottom” value in the experiment on Anopheles stephensi [7] (setting [10]) came to 25; in the experiment on Aedes aegypti [8] (setting [11]) it was 24. Also, the “SAI (Spatial Activity Index)” value in the experiment on Anopheles stephensi [7] (Anopheles stephensi, β-Caryophyllene 10 mg/day) is 0.43; in the experiment on Aedes aegypti [8] (Aedes aegypti, (Nc − Nt)/(Nc + Nt), −1 to 1, zero indicating no response), 0.52.

Turning to `CC1=CCC2CC3C(C)CCC13C2(C)C` (stereo not drawn) [α-patchoulene, α-Patchoulene], the GC-EAD antennal activity result in experiment [4] is reported as “elicited EAD-activity”.

For `CC1CCC2=C1CC1CCC2(C)C1(C)C` (stereo not drawn) [β-patchoulene, β-Patchoulene], the GC-EAD antennal activity entry in experiment [4] was “elicited EAD-activity”.
